Experimental data reported in patent US10265374B2, “Occidiofungin formations and uses thereof” (MISSISSIPPI STATE UNIVERSITY, priority 2014, dated 2019).
Where “and” joins values, the source holds several entries; their conditions need not be identical. Identical values can stand only once. Entries after “also recorded” stand apart in the source; their conditions may differ.

Tests used:
[1] = Pharmacokinetics in mouse (i.v., LC-MS/MS of plasma); assay type: in vivo; details: 2.5 mg/kg i.v., mice
Protocol: Six week old female BALB-C mice were used for this experiment. Occidiofungin, at a concentration of 2.5 mg/kg of body weight, was administered through the tail vein of each mouse. Nine mice were randomly selected for this experiment and were grouped into three groups of three mice each. Blood was drawn at 1, 3, 5, 7, 9, 12, 24 and 48 hours post injection (hpi) from the mice. 15 μl of blood was drawn from the lateral saphenous vein of each mouse for the first three time points. Blood from three mice were pooled together and added to 5 μl of 6.4% citric acid to prevent coagulation. From the fourth time point, blood was drawn from the tail vein of the mice. Blood samples were spun down at 13000 rpm for 10 minutes to separate the plasma. The plasma and the blood pellet obtained were stored separately at −20° C. for analysis. The plasma samples were thawed and the occidiofungin was extracted using a final concentration of 50% methanol. The protein precipitate was spun down at 13000 rpm for 10 minutes and the supernatant was used for analysis. The LC-MS/MS components were carried out at ThermoScientific laboratories. Liquid chromatography was done using Acclaim 120 C18 columns (Length: 150 mm; I.D: 2.1 mm; 5 μm) to purify the occidiofungin in the sample. The occidiofungin was then subjected to MS/MS using the ThermoScientific TSQ Vantage. Fragmentation of the occidiofungin (parent mass 1216 m/z) was carried out and the fragment of 1084 m/z, which corresponds to the occidiofungin molecule without the xylose sugar, was used for quantification of occidiofungin. All data were acquired and analyzed using TraceFinder (v 3.1).

[2] = Single dose toxicity study, i.v. occidiofungin in 1.5% hydroxy propyl-beta-cyclodextrin/PBS; assay type: in vivo, mice
Protocol: Female BALB/c mice at age of 6-8 weeks old were used. These mice were purchased from Harlan and allowed to acclimate at least 2 weeks after arrival. They were housed on a 12 hour light-dark cycle in a temperature and humidity controlled animal facility that is accredited by the American Association for Accreditation of Laboratory Animal Care. Animal care and use were in accord with NIH Guidelines and Texas A&M University regulations. Protocols used for the mice models were done in accordance to the methods reported by Luster et al. (See Reference 12).
Occidiofungin was produced as previously described and aliquoted and lyophilized into 100 μg quantities in 1.8 mL centrifuge tubes. […] Mice (5 mice per group) were given occidiofungin dissolved in 1.5% hydroxy propyl-beta-cylcodextrin suspended in phosphate buffered saline (PBS). […] For the experiments, occidiofungin was administered by intravenous (i.v.) injection into the tail vein at a single dose at 5 mg/kg of body weight. The excipient control in each experiment matched the vehicle. Body weight and clinical signs (movement, posture, skin lesions, appearance of fur indicating normal grooming, and behaviors) were recorded following administration at one, four, eight, sixteen, and twenty-four hours. Necropsies were performed at 24 hours following administration of occidiofungin.
Blood and tissue samples from animals dosed at 5 mg/kg of body weight with occidiofungin in 1.5% hydroxy propyl-beta-cylcodextrin suspended in PBS were taken 24 hours following excipient or drug administration. Mice were anesthetized with isofluorane. Blood was then taken from the retroorbital plexus or heart puncture for serum biochemistry assays (alkaline phosphatase, alanine aminotransferase, aspartate aminotransferase, albumin, and blood urea nitrogen) and hematology (white blood cell count and white blood cell differentiation). Body weight was measured immediately before treatment and 24 hours later before the mice were fully anesthetized and fixed in 10% neutral buffered formalin. Histological examination was performed on a portion of each organ by using routine paraffin embedding technique and staining with hematoxylin and eosin (H & E) (See Reference 14). All the sections were examined under light microscopy for pathological changes by a co-author of this paper, who is a board certified veterinary pathologist.

[3] = tested on: yeast cells; details: low drug concentrations (1 μg/ml, around 833 nM), Reference 2; cited from earlier work
[4] = Solubility of occidiofungin; assay type: physicochemical
[5] = tested on: Saccharomyces cerevisiae gene deletion mutants; details: Δycal vs wild-type, Reference 2; cited from earlier work
[6] = single IV dose 5 mg/kg, 24 hours
[7] = single IV dose 5 mg/kg, 24 hours, mean, 5 mg/kg

In the case of occidiofungin, the “clearance from the system by 24 hours” value [1] was “rapidly cleared”, the “concentration at 9-12 hpi compared to the concentration at 7 hpi” value [1] was 2.5 times and the “concentration of occidiofungin relative to the TC50 value for the cancer strains” value [1] was “three to six fold higher”. For the same substance, the “time at which occidiofungin concentration peaked” value [1] was “around 9 hpi”, the “concentration by 48 hours” value ([1]; limit of quantification 50 ng/ml) was “below the level of quantification” and the “peak concentration in blood/plasma” value ([1]; tail vein) was 480 ng/mL. The “behavioral response at 1 hour and to a lesser extent at 4 hours post i.v. administration” value ([2]; 5 mg/kg i.v.) was “more lethargic than excipient treated mice and had ruffled fur”, the “mice behavior by 8, 16, and 24 hour post injection” value ([2]; 5 mg/kg i.v.) was “appeared to be normal” and the “histological examination of organ tissues” value ([2]; 5 mg/kg i.v., 24 hours, esophagus, stomach, small intestine, colon, liver, pancreas, spleen, kidneys, lungs, heart, brain) was “no histological abnormalities; also recorded: No observable differences”. The “ratio of AST to ALT in all treated mice” value ([2]; 5 mg/kg i.v., 24 hours, ratio less than one indicative of liver damage) was “greater than one”, the average weight loss ([2]; single 5 mg/kg i.v. dose, 24 hours) was 6.2% and the “Hematology: Lymphocytes %” value [2, 6] was 54 ± 15%. The “Hematology: Neutrophils %” value [2, 6] was 43 ± 14%, the “Hematology: Platelet estimate” value [2, 6] was 39 ± 21 xK/ul and the “Hematology: WBC estimate” value [2, 6] was 4750 ± 1225. For the same substance, the “Serum Biochemistry: ALP” value [2, 6] was 99 ± 34 U/l, the “Serum Biochemistry: Albumin” value [2, 6] was 3.1 ± 0.6 g/dL and the “Serum Biochemistry: BUN” value [2, 6] was 29.6 ± 5 mg/dL. For the same substance, the “Weight Change %” value ([2]; single IV dose 5 mg/kg, 24 hours after administration, mean ± SD) was −6.2 ± 9.9%, the “Serum Biochemistry: ALT (SGPT)” value [2, 7] was 521 U/l and 521 ± 652 U/l and the “Serum Biochemistry: AST (SGOT)” value [2, 7] was 765 U/l and 765 ± 692 U/l. The “toxicity observed in mice” value ([2]; single i.v. dose at 5 mg/kg) was “no significant toxicity”, the “morphological change of yeast cells” value [3] was “appeared to shrink in size” and the “O.D.600 after addition of vehicle to the purified dried drug” value ([4]; 1.5% hydroxy propyl-beta-cyclodextrin in PBS, suggests the drug went into solution) was “negligible absorbance difference to vehicle without drug”. The “solubility in aqueous buffers” value ([4]; aqueous buffers) was “relatively low” and the “increase in resistance on deletion of the ycal gene” value [5] was 2 fold.
